Data published in patent US10898567B2, “Synthetic long peptides (SLP) for therapeutic vaccination against Hepatitis B virus infection” (priority 2014, dated 2021).

Tested on: PBMC derived from HBV-immune donors
Assay type: cell-based, human
Settings: six HBV-immune donors; for positive IFNγ response (SI>3) in HBV-immune donors / IFNγ response in multiple HBV-immune donors: IFNγ-ELISpot; for average SI of the IFNγ-responses: PBMC pre-stimulated with 3 nmol/ml peptide for 72 hours; for IFNγ response in multiple HBV-immune donors: SI>3
Procedure: To detect antigen-specific IFNγ-producing human T cells, the PBMC were first pre-stimulated with 3 nmol/ml of the indicated peptide for 72 hours at 37° C. […] After stimulation of the PBMC, the coating antibody was aspirated from the plate, and washed 4 times with PBS. To block aspecific binding, 100 μl of IMDM containing 8% FCS was added to all wells and incubated at 37° C. for 1 hour. In the meantime, stimulated PBMC were harvested, centrifuged, resuspended in X-vivo 15 medium (Lonza) and counted. […] The medium in the wells of the PVDF plate was aspirated and 100 μl of each PBMC sample was added to the plate in quadruplicates. The plates were incubated at 37° C. overnight. The next day, the supernatant was discarded and plates are washed 6 times with PBS/Tween20 0.05%. […] Next, plates were washed 6 times using PBS/Tween20 0.05% and 1 μg/ml Extravidin-Alkaline phosphatase (ALP) (Sigma-Aldrich) was added to all wells (100 μl/well) in PBS with 1% FBS. The plates were incubated for 1 hour at RT. ALP substrate solution BCIP/NBT-plus (Mabtech) was prepared and 100 μl/well was added to all wells after the plates were washed 4 times with PBS/Tween20 0.05%. To terminate the colorimetric reaction (after 1-20 minutes), tap water was used to wash the plates extensively. After drying, the formed spots were measured on a Biosys Bioreader 5000.
To assess the relevance of the selected vaccine peptides for the clearance of a naturally occurring HBV infection, we tested the presence of T cell responses against the 13 selected HBV peptides in PBMC derived from six HBV-immune donors. After isolation of the PBMC, cells were stimulated with each of the 13 peptides and an IFNγ-ELISpot was performed to detect T cell responses.

Sequence | positive IFNγ response (SI>3) in HBV-immune donors | average SI of the IFNγ-responses | IFNγ response in multiple HBV-immune donors
SPFLLAQFTSAICSVVRRAFPHCLAFSYMDDVVLGA (HBV Polymerase aa 524 - 559 (SLP No. 14)) [SLP14] | Responses were observed | 1.97 | –
VVNHYFQTRHYLHTLWKAGILYKRETTRSASFCGSPYSW (HBV Polymerase aa 139 - 177 (SLP No. 5)) [SLP5] | Responses were observed | 2.11 | –
NLLSSNLSWLSLDVSAAFYHIPLHPAAMPHLLIGSSGL (HBV Polymerase aa 419 - 456 (SLP No. 10)) [SLP10] | Responses were observed | 2.40 | induced responses in multiple donors
YPALMPLYACIQAKQAFTFSPTYKAFLSKQYMNLYPVAR (HBV Polymerase aa 653 - 691 (SLP No. 18)) [SLP18] | Responses were observed | 1.86 | –
MPLSYQHFRKLLLLDDGTEAGPLEEELPRL (HBV Polymerase aa 1 - 30 (SLP No. 1)) [SLP1] | – | 1.21 | –
CAFSSAGPCALRFTSARRMETTVNAHQILPKVLHK [SLP27] | Responses were observed | – | –
ALPSPSPSAVPADHGAHLSLRGLPVCAFSSAGP [SLP26] | Responses were observed | 1.56 | –
DPASRDLVVNYVNTNVGLKIRQLLWFHISCLTFGR (HBV Core aa 107 - 141 (SLP No. 24)) [SLP24] | Responses were observed | 2.54 | induced responses in multiple donors
HDSCSRQLYVSLMLLYKTYGWKLHLYSHPIVLGF (HBV Polymerase aa 481 - 514 (SLP No. 13)) [SLP13] | Responses were observed | 2.44 | induced responses in multiple donors
SSWAFAKYLWEWASVRFSWLSLLVPFVQWFV (HBV large surface protein aa 328-358) [SLP34] | Responses were observed | 3.02 | induced responses in multiple donors
